Measurements from US10398781B2, “Conjugate based systems for controlled drug delivery” (SmartCells, Inc., priority 2009, dated 2019).

Tests used:
[1] = tested on: serum insulin and blood glucose levels; test: Effect of a-MM co-injected at the local sub-Q injection site; assay type: in vivo, non-diabetic, male SD rats; details: 5 U/kg sub-Q
Protocol: In view of the data described in Example 42, we set out to determine whether the alpha-methyl mannose (a-MM) induced increase in serum conjugate concentration and bioactivity was a result of an increased rate of absorption from the subcutaneous injection site. The high affinity TSAT-C6-AETM-2 conjugate I-2 was used for this experiment. First, the conjugate was diluted to a concentration of 5 U/ml (0.2 mg/ml insulin equivalent) using either a buffered saline solution or a buffered saline solution containing 1 M a-MM. Each solution was injected sub-Q at a dose of 5 U/kg into the back of the neck of each of three non-diabetic, male SD rats at time 0 and blood samples were collected via tail vein bleeding at 0 minutes and at 15, 30, 45, 60, 90, 120, 150, 180, 240, and 300 minutes after injection. […] In this experiment, rats that received the a-MM conjugate solution also received an injection of buffered saline solution sub-Q at a separate hind quarter injection site at 15 minutes. Rats that received the saline conjugate solution also received an injection of a-MM solution sub-Q at a separate hind quarter injection site at 15 minutes.

[2] = tested on: serum insulin and blood glucose levels; test: Effect of IP exogenous saccharide 15 minutes after sub-Q conjugate on PK/PD profile; assay type: in vivo, fasted normal non-diabetic rats (Male Sprague-Dawley)
blood glucose [3] = test: Glucose lowering after i.v. injection in minipigs with and without a-MM infusion; assay type: in vivo, non-diabetic male Yucatan minipigs; details: 0.1 U/kg i.v.; for overall bioactivity (glucose lowering): minipigs
[4] = Accelerated stability testing (AST) aggregation assay; assay type: physicochemical; details: PBS buffer
blood glucose [5] = test: Sub-Q injection in non-diabetic and alloxan-diabetic minipigs; assay type: in vivo, Yucatan minipigs
[6] = Sugar-dependent i.v. elimination half-life in minipigs; assay type: in vivo, non-diabetic, male miniature swine (Yucatan strain); details: pigs, 0.1 U/kg i.v.
blood glucose [7] = test: Blood glucose depression profile after subcutaneous injection; assay type: in vivo, fasted normal non-diabetic rats (Male Sprague-Dawley); details: sub-Q
[8] = sub-Q, II-2 0.25, 0.50, 1.00 U/kg, RHI 0.063 and 0.125 U/kg
[9] = 0.25 ml of 20 U equivalent insulin/ml

## I-2: human insulin conjugated at B1 to TSAT-C6 framework with two AETM ligands
[1]
  serum insulin and blood glucose with 1M a-MM co-injected vs. buffered saline: the serum insulin levels do not increase and the blood glucose levels do not decrease
[2]; L-fucose IP 15 minutes after sub-Q injection
  effect of IP L-fucose on serum insulin profile: alpha-methyl mannose and L-fucose appear to exhibit the same kind of effect
[2]; a-MM IP 15 minutes after sub-Q injection
  change in PK/PD profile from IP injection of alpha-methyl mannose vs. saline: very significant (p<0.05)
[2]; galactose IP 15 minutes after sub-Q injection
  effect of IP galactose on serum insulin profile: no effect as compared to saline
[2]; glucose IP 15 minutes after sub-Q injection
  effect of IP glucose on serum insulin profile: small effect

## I-12: human insulin conjugated at A1 to TSAT-C6 framework with two AETM ligands
Blood glucose [3]
  overall bioactivity (glucose lowering): slightly more effective in lowering glucose than conjugate I-6

## I-16: human insulin conjugated at B1 to TSPE framework with three AEM ligands
[4]
  AST aggregation stability compared with RHI: greatly enhanced stability over pharmaceutical grade RHI

## II-2: A1,B29-disubstituted insulin, TSAT-C6 frameworks, four AETM ligands
Blood glucose [5]; single injection of approximately 0.5 U/kg
  duration of hypoglycemia-free glucose control in diabetic minipigs: 6 to 8 h
Blood glucose [5]; [8]
  blood glucose in alloxan-diabetic, hyperglycemic minipigs: significant dose-dependent reduction in blood glucose levels
  hypoglycemia / glucose-lowering in non-diabetic minipigs: absolutely no hypoglycemia or signs of glucose-lowering
[6]
  increase in t1/2 in the presence of a-MM: ~10 fold
Blood glucose [3]
  area over the glucose lowering curve in the presence of a-MM vs. absence of sugar: approximately 2.6 ×
  overall bioactivity (glucose lowering): reduced overall bioactivity
Blood glucose [3]; a-MM infusion 25% w/v 80 ml/h
  a-MM induced bioactivity: increased the a-MM induced bioactivity

## insulin-dextran: comparative insulin-dextran (MW~70K) conjugate made by CNBr coupling per U.S. Patent Publication No. 20040202719
Blood glucose [7]; [9]
  duration of serum glucose depression post injection: at least five hours
  time to reach the glucose nadir (Tnadir): about 3 hours

## insulin-glycogen: comparative insulin-oyster glycogen (Type II) conjugate per U.S. Patent Application Publication No. 20070099820
Blood glucose [7]; 2.5-5 U/kg
  glucose depression profile / glucose lowering response: lower glucose levels much more rapidly and to a greater extent
